The source of these data is patent US20240270762A1, “PENICILLIN-BINDING PROTEIN INHIBITORS” (priority 2021, published 2024).

Structures are written as SMILES. ≈ marks a conversion by molar mass, not a printed value. Where two headings read alike, the source gives them in different places.

For assay [1], the system named is P. aeruginosa ATCC 35151. Put plainly: microbe, parasite or virus in culture. It counts as cell-based. To be noted: Pseudomonas aeruginosa, ATCC35151, read-out: Minimum inhibitory concentration, P. aeruginosa ATCC 35151.
Assay [2] concerns N. gonorrhoeae WHO Q. Put plainly: Liquid broth MIC in Fastidious broth. To be noted: Neisseria gonorrhoeae.
The target in assay [3] is T1, PBP1a from Acinetobacter baumannii (ATCC 19606) (Acinetobacter baumannii, UniProt A0ABX6CK30).
T1 sequence (A0ABX6CK30 1-851): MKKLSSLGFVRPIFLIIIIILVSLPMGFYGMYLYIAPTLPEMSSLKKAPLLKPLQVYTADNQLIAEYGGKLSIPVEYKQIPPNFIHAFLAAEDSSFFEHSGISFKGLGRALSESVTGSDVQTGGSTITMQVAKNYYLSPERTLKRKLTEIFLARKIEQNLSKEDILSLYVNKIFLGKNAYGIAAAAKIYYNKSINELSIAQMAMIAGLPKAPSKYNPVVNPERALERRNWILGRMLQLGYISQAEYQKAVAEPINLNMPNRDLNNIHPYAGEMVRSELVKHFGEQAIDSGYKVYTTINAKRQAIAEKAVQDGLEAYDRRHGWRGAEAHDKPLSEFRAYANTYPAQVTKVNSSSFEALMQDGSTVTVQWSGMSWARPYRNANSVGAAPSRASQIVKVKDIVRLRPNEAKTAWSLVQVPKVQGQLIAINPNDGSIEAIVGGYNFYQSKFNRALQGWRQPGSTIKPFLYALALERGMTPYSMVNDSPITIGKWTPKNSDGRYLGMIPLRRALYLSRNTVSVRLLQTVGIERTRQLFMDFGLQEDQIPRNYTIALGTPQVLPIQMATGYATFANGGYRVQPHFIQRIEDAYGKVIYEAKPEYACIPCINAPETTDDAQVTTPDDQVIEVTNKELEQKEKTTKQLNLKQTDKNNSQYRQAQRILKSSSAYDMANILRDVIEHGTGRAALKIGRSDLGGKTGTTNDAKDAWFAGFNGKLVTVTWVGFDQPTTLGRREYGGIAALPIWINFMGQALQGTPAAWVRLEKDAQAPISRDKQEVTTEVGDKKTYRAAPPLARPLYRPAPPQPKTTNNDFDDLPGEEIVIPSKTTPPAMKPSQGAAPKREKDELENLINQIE
Briefly: Bocillin-FL fluorescence polarization competition binding, A. baumannii PBP1a. To be noted: fluorescence polarization competition binding assay using Bocillin-FL; read-out: A. baumannii PBP1a Potency. In a few lines:
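Purified PBPs pre-incubated with inhibitor (E. coli PBP3 1.5 μM, 30 min; P. aeruginosa PBP3 0.75 μM, A. baumannii PBP1a 1 μM and PBP3 0.2 μM, 15 min), then Bocillin-FL 0.1 μM (0.05 μM for PBP1a) added; FP read up to 60 min. EC50 = concentration halving bound Bocillin-FL.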
A general note: Fluorescence polarisation rises when a labelled molecule tumbles more slowly, as on binding a larger partner.

Assay [4] relates to B. pseudomallei Bp82. Briefly: microbe, parasite or virus in culture. To be noted: Burkholderia pseudomallei, BP82, read-out: Minimum inhibitory concentration, B. pseudomallei Bp82. It counts as cell-based.
The subject of assay [5] is P. aeruginosa CDC-0054. Put plainly: microbe, parasite or virus in culture. To be noted: Pseudomonas aeruginosa, CDC0054, read-out: Minimum inhibitory concentration, P. aeruginosa CDC-0054. The class given is cell-based.
Assay [6] concerns A. baumannii CDC-0036. Briefly: microbe, parasite or virus in culture. To be noted: Acinetobacter baumannii, CDC0036, read-out: MIC, A. baumannii CDC-0036. The class given is cell-based.
The mark [7] stands for this setting: read-out: Minimum Inhibitory Concentration (MIC), N. gonorrhoeae WHO Q.
[8] abbreviates: read-out: Minimum Inhibitory Concentration, WHO Q.

Regarding `O=C(O)c1c(F)ccc2c1OB(O)[C@@H](NC(=O)[C@H](NC(=O)N1CCN(CCNC(=O)[C@@H]3CCCN3)C(=O)C1=O)c1cc(F)c(O)c(O)c1Cl)C2` [Example 229, (R)-3-((R)-2-(2-chloro-5-fluoro-3,4-dihydroxyphenyl)-2-(2,3-dioxo-4-(2-((S)-pyrrolidine-2-carboxamido)ethyl)piperazine-1-carboxamido)acetamido)-7-fluoro-2-hydroxy-3,4-dihydro-2H-benzo[e][1,2]oxaborinine-8-carboxylic acid], the MIC was under 1 µg/mL in assay [1]; 16 to 32 µg/mL (≈ 22.1 to 44.3 µM) in assay [2] (setting [7]); under 1 µg/mL in assay [4]; 2 to 4 µg/mL (≈ 2.77 to 5.53 µM) in assay [5]; 2 to 4 µg/mL (≈ 2.77 to 5.53 µM) in assay [6]. In addition, the IC50 in assay [3] was over 250 µM.
For `O=C(NCCN1CCN(C(=O)NC(C(=O)N[C@H]2Cc3ccc(F)c(C(=O)O)c3OB2O)c2cc(F)c(O)c(O)c2Cl)C1=O)c1ccncc1` (stereo partly drawn) [Example 245, (3R)-3-(2-(2-chloro-5-fluoro-3,4-dihydroxyphenyl)-2-(3-(2-(isonicotinamido)ethyl)-2-oxoimidazolidine-1-carboxamido)acetamido)-7-fluoro-2-hydroxy-3,4-dihydro-2H-benzo[e][1,2]oxaborinine-8-carboxylic acid], the MIC was under 1 µg/mL in assay [1]; over 64 µg/mL in assay [2] (setting [7]); under 1 µg/mL in assay [4]; 2 to 4 µg/mL (≈ 2.85 to 5.69 µM) in assay [5]; 2 to 4 µg/mL (≈ 2.85 to 5.69 µM) in assay [6]. The IC50 in assay [3] was over 250 µM.
As to `O=C(NCCN1CCN(C(=O)NC(C(=O)N[C@H]2Cc3ccc(F)c(C(=O)O)c3OB2O)c2cc(F)c(O)c(O)c2Cl)C1=O)c1nccs1` (stereo partly drawn) [Example 247, (3R)-3-(2-(2-chloro-5-fluoro-3,4-dihydroxyphenyl)-2-(2-oxo-3-(2-(thiazole-2-carboxamido)ethyl)imidazolidine-1-carboxamido)acetamido)-7-fluoro-2-hydroxy-3,4-dihydro-2H-benzo[e][1,2]oxaborinine-8-carboxylic acid], the MIC was under 1 µg/mL in assay [1]; 16 to 32 µg/mL (≈ 22.6 to 45.1 µM) in assay [2] (setting [8]); under 1 µg/mL in assay [4]; 2 to 4 µg/mL (≈ 2.82 to 5.64 µM) in assay [5]; under 1 µg/mL in assay [6]. Also, the IC50 in assay [3] was over 250 µM.
In the case of `O=C(NCCN1CCN(C(=O)NC(C(=O)N[C@H]2Cc3ccc(F)c(C(=O)O)c3OB2O)c2cc(F)c(O)c(O)c2Cl)C1=O)Nc1ccncc1` (stereo partly drawn) [Example 250, (3R)-3-(2-(2-chloro-5-fluoro-3,4-dihydroxyphenyl)-2-(2-oxo-3-(2-(3-(pyridin-4-yl)ureido)ethyl)imidazolidine-1-carboxamido)acetamido)-7-fluoro-2-hydroxy-3,4-dihydro-2H-benzo[e][1,2]oxaborinine-8-carboxylic acid], the MIC is under 1 µg/mL in assay [1]; over 64 µg/mL in assay [2] (setting [8]); under 1 µg/mL in assay [4]; 8 to 16 µg/mL (≈ 11.1 to 22.3 µM) in assay [5]; 2 to 4 µg/mL (≈ 2.79 to 5.57 µM) in assay [6]. In addition, the IC50 in assay [3] is over 250 µM.
Take `O=C(NCCN1CCN(C(=O)NC(C(=O)N[C@H]2Cc3ccc(F)c(C(=O)O)c3OB2O)c2cc(F)c(O)c(O)c2Cl)C1=O)Nc1cccnc1` (stereo partly drawn) [Example 251, (3R)-3-(2-(2-chloro-5-fluoro-3,4-dihydroxyphenyl)-2-(2-oxo-3-(2-(3-(pyridin-3-yl)ureido)ethyl)imidazolidine-1-carboxamido)acetamido)-7-fluoro-2-hydroxy-3,4-dihydro-2H-benzo[e][1,2]oxaborinine-8-carboxylic acid]: the MIC in assay [1] is under 1 µg/mL; in assay [2] (setting [8]), over 64 µg/mL; in assay [4] it was under 1 µg/mL; in assay [5], 8 to 16 µg/mL (≈ 11.1 to 22.3 µM); in assay [6], 2 to 4 µg/mL (≈ 2.79 to 5.57 µM). The IC50 in assay [3] is over 250 µM.
With `O=C(NCCCN1CCN(C(=O)N[C@@H](C(=O)N[C@H]2Cc3ccc(F)c(C(=O)O)c3OB2O)c2cc(F)c(O)c(O)c2Cl)C1=O)c1cccc(O)c1` [Example 255, (R)-3-((R)-2-(2-chloro-5-fluoro-3,4-dihydroxyphenyl)-2-(3-(3-(3-hydroxybenzamido)propyl)-2-oxoimidazolidine-1-carboxamido)acetamido)-7-fluoro-2-hydroxy-3,4-dihydro-2H-benzo[e][1,2]oxaborinine-8-carboxylic acid], the MIC in assay [1] is under 1 µg/mL; in assay [2] (setting [8]), 16 to 32 µg/mL (≈ 21.9 to 43.7 µM); in assay [4], under 1 µg/mL; in assay [5], under 1 µg/mL; in assay [6] it was under 1 µg/mL. Also, the IC50 in assay [3] was over 250 µM.
As to `O=C(NCCCN1CCN(C(=O)NC(C(=O)N[C@H]2Cc3ccc(F)c(C(=O)O)c3OB2O)c2cc(F)c(O)c(O)c2Cl)C1=O)c1ccncc1` (stereo partly drawn) [Example 256, (3R)-3-(2-(2-chloro-5-fluoro-3,4-dihydroxyphenyl)-2-(3-(3-(isonicotinamido)propyl)-2-oxoimidazolidine-1-carboxamido)acetamido)-7-fluoro-2-hydroxy-3,4-dihydro-2H-benzo[e][1,2]oxaborinine-8-carboxylic acid], the MIC was under 1 µg/mL in assay [1]; over 64 µg/mL in assay [2] (setting [8]); under 1 µg/mL in assay [4]; 2 to 4 µg/mL (≈ 2.79 to 5.58 µM) in assay [5]; 2 to 4 µg/mL (≈ 2.79 to 5.58 µM) in assay [6]. Moreover, the IC50 in assay [3] was over 250 µM.
For the compound `O=C(NCCCN1CCN(C(=O)NC(C(=O)N[C@H]2Cc3ccc(F)c(C(=O)O)c3OB2O)c2cc(F)c(O)c(O)c2Cl)C1=O)c1nccs1` (stereo partly drawn) [Example 257, (3R)-3-(2-(2-chloro-5-fluoro-3,4-dihydroxyphenyl)-2-(2-oxo-3-(3-(thiazole-2-carboxamido)propyl)imidazolidine-1-carboxamido)acetamido)-7-fluoro-2-hydroxy-3,4-dihydro-2H-benzo[e][1,2]oxaborinine-8-carboxylic acid], the MIC is under 1 µg/mL in assay [1]; over 64 µg/mL in assay [2] (setting [8]); under 1 µg/mL in assay [4]; 2 to 4 µg/mL (≈ 2.77 to 5.53 µM) in assay [5]; 2 to 4 µg/mL (≈ 2.77 to 5.53 µM) in assay [6]. Also, the IC50 in assay [3] was over 250 µM.
Turning to `O=C(NCCCN1CCN(C(=O)N[C@@H](C(=O)N[C@H]2Cc3ccc(F)c(C(=O)O)c3OB2O)c2cc(F)c(O)c(O)c2Cl)C1=O)Nc1cccc(O)c1` [Example 258, (R)-3-((R)-2-(2-chloro-5-fluoro-3,4-dihydroxyphenyl)-2-(3-(3-(3-(3-hydroxyphenyl)ureido)propyl)-2-oxoimidazolidine-1-carboxamido)acetamido)-7-fluoro-2-hydroxy-3,4-dihydro-2H-benzo[e][1,2]oxaborinine-8-carboxylic acid], the MIC in assay [1] was under 1 µg/mL; in assay [2] (setting [8]), 16 to 32 µg/mL (≈ 21.4 to 42.8 µM); in assay [4], under 1 µg/mL; in assay [5] it was under 1 µg/mL; in assay [6] it was under 1 µg/mL. Also, the IC50 in assay [3] was over 250 µM.
`O=C(NCCCN1CCN(C(=O)NC(C(=O)N[C@H]2Cc3ccc(F)c(C(=O)O)c3OB2O)c2cc(F)c(O)c(O)c2Cl)C1=O)Nc1cccnc1` (stereo partly drawn) [Example 259, (3R)-3-(2-(2-chloro-5-fluoro-3,4-dihydroxyphenyl)-2-(2-oxo-3-(3-(3-(pyridin-3-yl)ureido)propyl)imidazolidine-1-carboxamido)acetamido)-7-fluoro-2-hydroxy-3,4-dihydro-2H-benzo[e][1,2]oxaborinine-8-carboxylic acid]: the MIC in assay [1] was under 1 µg/mL; in assay [2] (setting [8]) it was 16 to 32 µg/mL (≈ 21.9 to 43.7 µM); in assay [4] it was under 1 µg/mL; in assay [5], 2 to 4 µg/mL (≈ 2.73 to 5.47 µM); in assay [6], under 1 µg/mL. In assay [3], the IC50 was over 250 µM.
Take `O=C(NCCS(=O)(=O)N1CCN(C(=O)NC(C(=O)N[C@H]2Cc3ccc(F)c(C(=O)O)c3OB2O)c2cc(F)c(O)c(O)c2Cl)C1=O)c1cccnc1` (stereo partly drawn) [Example 262, (3R)-3-(2-(2-chloro-5-fluoro-3,4-dihydroxyphenyl)-2-(3-((2-(nicotinamido)ethyl)sulfonyl)-2-oxoimidazolidine-1-carboxamido)acetamido)-7-fluoro-2-hydroxy-3,4-dihydro-2H-benzo[e][1,2]oxaborinine-8-carboxylic acid]: the MIC in assay [1] is under 1 µg/mL; in assay [2] (setting [8]), 16 to 32 µg/mL (≈ 20.9 to 41.7 µM); in assay [4] it was under 1 µg/mL; in assay [5], 2 to 4 µg/mL (≈ 2.61 to 5.22 µM); in assay [6], under 1 µg/mL. Moreover, in assay [3], the IC50 is over 250 µM.
